From patent publication EP4740948A1 (Dong Wha Pharm. Co., Ltd., priority 2023, dated 2025)

How the values were obtained:
EZH1 = EZH1 (Homo sapiens, UniProt Q92800); test: AlphaLISA enzyme activity inhibition, EZH1; format: biochemical; settings: 5nM test substance
Summary of the method: (§1)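 Enzyme inhibition rate was calculated relative to DMSO from AlphaLISA signal, with acceptor beads added after a 2 h methylation reaction and donor beads 1 h later. Each enzyme, EZH1 or EZH2, was pre-mixed with compound (final 5 nM or 10 nM) in Tris buffer pH 8.0 before histone H3 peptide and SAM initiated the reaction.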

EZH2 = EZH2 (Homo sapiens, UniProt Q15910); test: AlphaLISA enzyme activity inhibition, EZH2; format: biochemical; settings: 5nM test substance
EZH2, sequence (Q15910 whole entry, species assumed): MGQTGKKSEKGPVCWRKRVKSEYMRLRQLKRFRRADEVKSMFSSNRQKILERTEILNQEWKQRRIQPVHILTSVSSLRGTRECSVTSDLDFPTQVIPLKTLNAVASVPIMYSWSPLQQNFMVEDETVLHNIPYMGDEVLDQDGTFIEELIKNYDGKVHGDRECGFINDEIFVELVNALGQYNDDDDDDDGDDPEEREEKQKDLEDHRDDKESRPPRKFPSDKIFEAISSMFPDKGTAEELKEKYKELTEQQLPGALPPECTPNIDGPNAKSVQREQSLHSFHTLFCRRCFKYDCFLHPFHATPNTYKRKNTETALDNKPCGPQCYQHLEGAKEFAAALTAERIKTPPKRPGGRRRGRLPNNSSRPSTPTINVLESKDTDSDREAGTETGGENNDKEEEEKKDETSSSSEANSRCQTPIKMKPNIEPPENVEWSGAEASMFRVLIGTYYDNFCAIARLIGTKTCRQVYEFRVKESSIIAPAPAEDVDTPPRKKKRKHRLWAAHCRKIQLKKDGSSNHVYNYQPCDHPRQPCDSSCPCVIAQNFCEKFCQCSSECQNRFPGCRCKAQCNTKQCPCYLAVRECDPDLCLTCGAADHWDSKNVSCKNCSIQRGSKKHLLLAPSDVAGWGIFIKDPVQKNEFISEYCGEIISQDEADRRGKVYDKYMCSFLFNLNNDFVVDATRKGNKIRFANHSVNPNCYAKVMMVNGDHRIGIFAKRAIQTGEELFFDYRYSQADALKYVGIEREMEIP
EZH2, sequence (O75530 whole entry partner, species assumed): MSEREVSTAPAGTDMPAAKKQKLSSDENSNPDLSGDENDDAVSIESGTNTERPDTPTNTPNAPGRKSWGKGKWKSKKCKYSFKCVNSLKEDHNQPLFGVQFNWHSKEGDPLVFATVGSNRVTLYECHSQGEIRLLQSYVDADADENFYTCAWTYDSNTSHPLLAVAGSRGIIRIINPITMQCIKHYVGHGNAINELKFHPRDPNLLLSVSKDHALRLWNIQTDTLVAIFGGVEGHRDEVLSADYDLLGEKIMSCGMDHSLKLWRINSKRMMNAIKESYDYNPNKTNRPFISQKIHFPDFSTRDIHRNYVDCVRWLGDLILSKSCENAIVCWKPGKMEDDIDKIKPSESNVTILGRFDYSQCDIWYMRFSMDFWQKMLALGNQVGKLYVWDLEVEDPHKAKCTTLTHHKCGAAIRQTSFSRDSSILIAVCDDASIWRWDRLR
EZH2, sequence (Q15022 whole entry partner, species assumed): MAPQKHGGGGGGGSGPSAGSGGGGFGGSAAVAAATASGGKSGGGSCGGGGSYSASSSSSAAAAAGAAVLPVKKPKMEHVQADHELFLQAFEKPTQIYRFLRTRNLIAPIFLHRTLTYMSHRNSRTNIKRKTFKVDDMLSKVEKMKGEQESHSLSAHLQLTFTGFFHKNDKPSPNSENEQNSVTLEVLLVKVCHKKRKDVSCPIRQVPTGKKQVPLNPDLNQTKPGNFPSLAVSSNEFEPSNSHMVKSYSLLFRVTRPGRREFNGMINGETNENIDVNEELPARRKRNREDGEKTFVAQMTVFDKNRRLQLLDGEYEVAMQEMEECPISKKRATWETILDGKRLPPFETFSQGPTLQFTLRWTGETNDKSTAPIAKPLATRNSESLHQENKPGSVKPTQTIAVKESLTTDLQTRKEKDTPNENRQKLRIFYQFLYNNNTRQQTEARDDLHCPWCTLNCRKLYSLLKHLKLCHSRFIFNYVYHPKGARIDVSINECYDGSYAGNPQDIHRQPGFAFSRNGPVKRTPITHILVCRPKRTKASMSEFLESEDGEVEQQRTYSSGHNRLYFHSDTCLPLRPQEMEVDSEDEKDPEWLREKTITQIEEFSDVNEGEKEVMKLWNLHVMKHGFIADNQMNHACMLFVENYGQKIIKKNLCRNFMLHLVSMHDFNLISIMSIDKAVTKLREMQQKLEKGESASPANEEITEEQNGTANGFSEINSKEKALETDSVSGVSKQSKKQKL
Summary of the method: as §1

Lovo cells = test: Cancer cell proliferation inhibition (Cell Counting Kit-8), colorectal cancer cell line; format: cell-based; settings: Homo sapiens, LoVo, 264 h, 1000 nM, cultured seven to 11 days; read-out: % inhibition rate LoVo
Summary of the method: (§2)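 Single-concentration test: 1000 nM compound, 7-11 day culture after seeding 100 to 1,000 cells per well in 10% FBS medium. Percent inhibition derived from Cell Counting Kit-8 signal relative to untreated control.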

G401 cells = test: Cancer cell proliferation inhibition (Cell Counting Kit-8), rhabdoid tumor cell line; format: cell-based; settings: Homo sapiens, G-401, 264 h, 1000 nM, cultured seven to 11 days; read-out: % inhibition rate G401
Summary of the method: (§3)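 Single 1000 nM dose of test substance, applied to cells seeded at 100–1,000 per well in 10% FBS medium, then culture for seven to 11 days. CCK-8 read-out; inhibition rate expressed as percent relative to untreated control.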

MKN-45 cells = test: Cancer cell proliferation inhibition (Cell Counting Kit-8), gastric cancer cell line; format: cell-based; settings: Homo sapiens, MKN-45, 264 h, 1000 nM, cultured seven to 11 days; read-out: % inhibition rate MKN -45
Summary of the method: as §3

SW-13 cells = test: Cancer cell proliferation inhibition (Cell Counting Kit-8), adrenal cancer cell line; format: cell-based; settings: Homo sapiens, SW13, 264 h, 1000 nM, cultured seven to 11 days; read-out: % inhibition rate SW-13
Summary of the method: as §2

MIA-PaCa-2 cells = test: Cancer cell proliferation inhibition (Cell Counting Kit-8), pancreatic cancer cell line; format: cell-based; settings: Homo sapiens, MIA PaCa-2, 264 h, 1000 nM, cultured seven to 11 days; read-out: % inhibition rate MIA-Paca2
Summary of the method: as §2

NCI-H1299 cells = test: Cancer cell proliferation inhibition (Cell Counting Kit-8), lung cancer cell line; format: cell-based; settings: Homo sapiens, NCI-H1299, 264 h, 1000 nM, cultured seven to 11 days; read-out: % inhibition rate NCI-H129 9
Summary of the method: as §2

EZH1, sequence (Q92800 whole entry, species assumed): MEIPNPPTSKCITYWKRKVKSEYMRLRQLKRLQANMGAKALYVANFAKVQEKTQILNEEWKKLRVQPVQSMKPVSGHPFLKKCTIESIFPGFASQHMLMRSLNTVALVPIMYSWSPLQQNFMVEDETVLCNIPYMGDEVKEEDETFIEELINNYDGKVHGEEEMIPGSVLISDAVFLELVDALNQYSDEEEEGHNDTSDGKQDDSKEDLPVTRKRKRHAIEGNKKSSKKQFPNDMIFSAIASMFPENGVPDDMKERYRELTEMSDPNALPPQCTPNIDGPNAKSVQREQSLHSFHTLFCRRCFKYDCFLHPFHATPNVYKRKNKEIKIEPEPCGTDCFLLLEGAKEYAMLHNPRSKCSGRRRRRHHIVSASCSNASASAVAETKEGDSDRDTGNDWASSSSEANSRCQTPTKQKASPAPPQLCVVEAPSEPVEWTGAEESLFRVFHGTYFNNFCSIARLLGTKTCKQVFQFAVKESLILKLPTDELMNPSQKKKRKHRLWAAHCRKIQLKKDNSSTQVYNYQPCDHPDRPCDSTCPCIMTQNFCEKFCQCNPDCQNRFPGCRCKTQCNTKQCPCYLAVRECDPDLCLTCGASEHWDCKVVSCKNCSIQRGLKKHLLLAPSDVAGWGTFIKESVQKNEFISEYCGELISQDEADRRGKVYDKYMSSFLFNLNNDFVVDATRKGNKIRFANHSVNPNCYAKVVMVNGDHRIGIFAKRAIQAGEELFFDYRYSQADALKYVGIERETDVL
EZH1, sequence (O75530 whole entry partner, species assumed): as the sequence (O75530 whole entry partner, species assumed) above
EZH1, sequence (Q15022 whole entry partner, species assumed): as the sequence (Q15022 whole entry partner, species assumed) above

| SMILES | inhibition at 0.005 µM (EZH1) [%] | inhibition at 0.005 µM (EZH2) [%] | inhibition at 1 µM (Lovo cells) [%] | inhibition at 1 µM (G401 cells) [%] | inhibition at 1 µM (MKN-45 cells) [%] | inhibition at 1 µM (SW-13 cells) [%] | inhibition at 1 µM (MIA-PaCa-2 cells) [%] | inhibition at 1 µM (NCI-H1299 cells) [%] |
| --- | --- | --- | --- | --- | --- | --- | --- | --- |
| CSc1cc(C)[nH]c(=O)c1CNC(=O)c1cc(-c2ccc(N3C[C@@H](C)O[C@@H](C)C3)nc2)c2c(c1C)OC(C)([C@H]1CC[C@H](N(C)C)CC1)O2 (stereo partly drawn) [Compound 1, 2-(trans-4-(dimethylamino)cyclohexyl)-7-(6-((2S,6R)-2,6-dimethylmorpholino)pyridin-3-yl)-2,4-dimethyl-N-((6-methyl-4-(methylthio)-2-oxo-1,2-dihydropyridin-3-yl)methyl)benzo[d][1,3]dioxole-5-carboxamide] | 89.1 | 98.7 | 30 to 70 | 30 to 70 | ≤ 30 | 30 to 70 | ≤ 30 | ≤ 30 |
| CSc1cc(C)[nH]c(=O)c1CNC(=O)c1cc(-c2cnc(N3C[C@@H](C)O[C@@H](C)C3)nc2)c2c(c1C)OC(C)([C@H]1CC[C@H](N(C)C)CC1)O2 (stereo partly shown) [Compound 2] | 82 | 92.9 | 30 to 70 | 30 to 70 | ≤ 30 | 30 to 70 | ≤ 30 | ≤ 30 |
| CSc1cc(C)[nH]c(=O)c1CNC(=O)c1cc(-c2ccc(N3C[C@@H](C)O[C@@H](C)C3)nc2)c2c(c1C)OC(C)([C@H]1CC[C@H](N(C)CC(F)(F)F)CC1)O2 (stereo partly drawn) [Compound 20, 7-(6-((2S,6R)-2,6-dimethylmorpholino)pyridin-3-yl)-2,4-dimethyl-2-(trans-4-(methyl(2,2,2-trifluoroethyl)amino)cyclohexyl)-N-((6-methyl-4-(methylthio)-2-oxo-1,2-dihydropyridin-3-yl)methyl)benzo[d][1,3]dioxole-5-carboxamide] | 34.3 | 26.1 | ≥ 70 | 30 to 70 | 30 to 70 | ≤ 30 | ≤ 30 | ≤ 30 |
| CSc1cc(C)[nH]c(=O)c1CNC(=O)c1cc(-c2cnc(N3C[C@@H](C)O[C@@H](C)C3)nc2)c2c(c1C)OC(C)([C@H]1CC[C@H](N(C)CC(F)(F)F)CC1)O2 (stereo partly drawn) [Compound 23, 7-(2-((2S,6R)-2,6-dimethylmorpholino)pyrimidin-5-yl)-2,4-dimethyl-2-(trans-4-(methyl(2,2,2-trifluoroethyl)amino)cyclohexyl)-N-((6-methyl-4-(methylthio)-2-oxo-1,2-dihydropyridin-3-yl)methyl)benzo[d][1,3]dioxole-5-carboxamide] | 31.4 | 34.2 | ≥ 70 | 30 to 70 | ≤ 30 | ≤ 30 | ≤ 30 | ≤ 30 |
| COCCN(C)[C@H]1CC[C@H](C2(C)Oc3c(-c4ccc(N5C[C@@H](C)O[C@@H](C)C5)nc4)cc(C(=O)NCc4c(SC)cc(C)[nH]c4=O)c(C)c3O2)CC1 (stereo partly drawn) [Compound 24, 7-(6-((2S,6R)-2,6-dimethylmorpholino)pyridin-3-yl)-2-(trans-4-((2-methoxyethyl)(methyl)amino)cyclohexyl)-2,4-dimethyl-N-((6-methyl-4-(methylthio)-2-oxo-1,2-dihydropyridin-3-yl)methyl)benzo[d][1,3]dioxole-5-carboxamide] | 35.1 | 98.6 | ≥ 70 | 30 to 70 | ≤ 30 | 30 to 70 | ≤ 30 | ≤ 30 |
| COCCN(C)[C@H]1CC[C@H](C2(C)Oc3c(-c4cnc(N5C[C@@H](C)O[C@@H](C)C5)nc4)cc(C(=O)NCc4c(SC)cc(C)[nH]c4=O)c(C)c3O2)CC1 (stereo partly drawn) [Compound 25, 7-(2-((2S,6R)-2,6-dimethylmorpholino)pyrimidin-5-yl)-2-(trans-4-((2-methoxyethyl)(methyl)amino)cyclohexyl)-2,4-dimethyl-N-((6-methyl-4-(methylthio)-2-oxo-1,2-dihydropyridin-3-yl)methyl)benzo[d][1,3]dioxole-5-carboxamide] | 82.4 | 97.6 | ≥ 70 | 30 to 70 | ≤ 30 | 30 to 70 | ≤ 30 | ≤ 30 |

The next lines start with results.

| inhibition at 0.005 µM (EZH1) [%] | inhibition at 0.005 µM (EZH2) [%] | SMILES | inhibition at 1 µM (Lovo cells) [%] | inhibition at 1 µM (G401 cells) [%] | inhibition at 1 µM (MKN-45 cells) [%] | inhibition at 1 µM (SW-13 cells) [%] | inhibition at 1 µM (MIA-PaCa-2 cells) [%] | inhibition at 1 µM (NCI-H1299 cells) [%] |
| --- | --- | --- | --- | --- | --- | --- | --- | --- |
| 91.6 | 98.3 | CSc1cc(C)[nH]c(=O)c1CNC(=O)c1cc(-c2ccc(N3C[C@@H](C)O[C@@H](C)C3)nc2)c2c(c1C)OC(C)([C@H]1CC[C@H](N(C)C[C@H](C)O)CC1)O2 (stereo partly drawn) [Compound 29, 7-(6-((2S,6R)-2,6-dimethylmorpholino)pyridin-3-yl)-2-(trans-4-(((S)-2-hydroxypropyl)(methyl)amino)cyclohexyl)-2,4-dimethyl-N-((6-methyl-4-(methylthio)-2-oxo-1,2-dihydropyridin-3-yl)methyl)benzo[d][1,3]dioxole-5-carboxamide] | ≥ 70 | 30 to 70 | ≤ 30 | 30 to 70 | ≤ 30 | ≤ 30 |
| 80.4 | 83.1 | CCCOCCN(C)[C@H]1CC[C@H](C2(C)Oc3c(-c4ccc(N5C[C@@H](C)O[C@@H](C)C5)nc4)cc(C(=O)NCc4c(SC)cc(C)[nH]c4=O)c(C)c3O2)CC1 (stereo partly drawn) [Compound 30, 7-(6-((2S,6R)-2,6-dimethylmorpholino)pyridin-3-yl)-2,4-dimethyl-2-(trans-4-(methyl(2-propoxyethyl)amino)cyclohexyl)-N-((6-methyl-4-(methylthio)-2-oxo-1,2-dihydropyridin-3-yl)methyl)benzo[d][1,3]dioxole-5-carboxamide] | ≥ 70 | 30 to 70 | 30 to 70 | 30 to 70 | ≤ 30 | ≤ 30 |
| 67.3 | 75.6 | COC(CN(C)[C@H]1CC[C@H](C2(C)Oc3c(-c4ccc(N5C[C@@H](C)O[C@@H](C)C5)nc4)cc(C(=O)NCc4c(SC)cc(C)[nH]c4=O)c(C)c3O2)CC1)OC (stereo partly drawn) [Compound 31, 2-(trans-4-((2,2-dimethoxyethyl)(methyl)amino)cyclohexyl)-7-(6-((2S,6R)-2,6-dimethylmorpholino)pyridin-3-yl)-2,4-dimethyl-N-((6-methyl-4-(methylthio)-2-oxo-1,2-dihydropyridin-3-yl)methyl)benzo[d][1,3]dioxole-5-carboxamide] | ≥ 70 | 30 to 70 | 30 to 70 | 30 to 70 | ≤ 30 | ≤ 30 |
| 74.1 | 82.6 | CSc1cc(C)[nH]c(=O)c1CNC(=O)c1cc(-c2ccc(N3C[C@@H](C)O[C@@H](C)C3)nc2)c2c(c1C)OC(C)([C@H]1CC[C@H](N(C)CC3OCCO3)CC1)O2 (stereo partly drawn) [Compound 32, 2-(trans-4-(((1,3-dioxolan-2-yl)methyl)(methyl)amino)cyclohexyl)-7-(6-((2S,6R)-2,6-dimethylmorpholino)pyridin-3-yl)-2,4-dimethyl-N-((6-methyl-4-(methylthio)-2-oxo-1,2-dihydropyridin-3-yl)methyl)benzo[d][1,3]dioxole-5-carboxamide] | ≥ 70 | 30 to 70 | 30 to 70 | 30 to 70 | ≤ 30 | 30 to 70 |
| 37.6 | 59.1 | CSc1cc(C)[nH]c(=O)c1CNC(=O)c1cc(-c2ccc(N3C[C@@H](C)O[C@@H](C)C3)nc2)c2c(c1C)OC(C)(C1CCN(CC(F)(F)F)CC1)O2 (stereo partly drawn) [Compound 33, 7-(6-((2S,6R)-2,6-dimethylmorpholino)pyridin-3-yl)-2,4-dimethyl-N-((6-methyl-4-(methylthio)-2-oxo-1,2-dihydropyridin-3-yl)methyl)-2-(1-(2,2,2-trifluoroethyl)piperidin-4-yl)benzo[d][1,3]dioxole-5-carboxamide] | ≥ 70 | ≥ 70 | 30 to 70 | 30 to 70 | ≤ 30 | ≤ 30 |
